Reference: ChEMBL document CHEMBL1201862, “PubChem BioAssay data set” (2004)
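Step 1: Grow cells in 96-well plates. Step 2: Expose to compound for 48 hours at 5 concentrations. Step 3: Interpolate endpoints linearly; if unreached, use highest concentration. GI50 = concentration required for 50% inhibition of growth.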 The source made the active and inactive calls. Cut-off read from the data, not from the text of the source: active = GI50 up to about 1.1 µM and inactive = higher. Residues, ends and D or L forms follow the SMILES beside them. *: point of attachment. Boc = CC(C)(C)OC(=O)*; OBn = c1ccc(CO*)cc1

What was measured:
Test in all cases: inhibition of tumour cell growth, NCI panel, 48 h
M14 = test system: M14
UACC-62 = test system: UACC-62
SF-295 = test system: SF-295
HCT-15 = test system: HCT-15
MOLT-4 = test system: MOLT-4
A549 = test system: A549
NCI-H23 = test system: NCI-H23
CCRF-CEM = test system: CCRF-CEM
CAKI-1 = test system: CAKI-1
NCI-H460 = test system: NCI-H460
OVCAR-5 = test system: OVCAR-5
SK-OV-3 = test system: SK-OV-3
K562 = test system: K562
PC-3 = test system: PC-3
HL-60 = test system: HL-60
NCI-H522 = test system: NCI-H522
KM12 = test system: KM12
NCI-H226 = test system: NCI-H226
EKVX = test system: EKVX
NCI/ADR-RES = test system: NCI/ADR-RES

Row | Structure (SMILES) | GI50 (M14) | GI50 (UACC-62) | GI50 (SF-295) | GI50 (HCT-15) [µM] | GI50 (MOLT-4) | GI50 (A549) | GI50 (NCI-H23) | GI50 (CCRF-CEM) | GI50 (CAKI-1) | GI50 (NCI-H460) | GI50 (OVCAR-5) | GI50 (SK-OV-3) | GI50 (K562) | GI50 (PC-3) | GI50 (HL-60) | GI50 (NCI-H522) | GI50 (KM12) | GI50 (NCI-H226) | GI50 (EKVX) | GI50 (NCI/ADR-RES)
1 | CC1=CC[C@@H]2[C@@H](CC[C@@]2(C)O)C(C)(C)[C@H]1CC[C@@H]1[C@@]2(C)CC[C@@H](O)C(C)(C)O[C@@H]2CC[C@]1(C)O | 22.5 µM (inactive) | 15.5 µM (inactive) | 33.1 µM (inactive) | 18.2 | 17.9 µM (inactive) | 27.3 µM (inactive) | 24.5 µM (inactive) | > 10 µM (inactive) | 20 µM (inactive) | 17.7 µM (inactive) | 29.9 µM (inactive) | 35.9 µM (inactive) | 15.3 µM (inactive) | 40.6 µM (inactive) | 21.4 µM (inactive) | – | – | – | – | –
2 | COc1ccc(C(=O)C2=NON3OC23C(=O)c2ccc(OC)cc2)cc1 (centres undefined) | 15.4 µM (inactive) | 17.8 µM (inactive) | 19.2 µM (inactive) | 15.5 | 2.59 µM (inactive) | 22.4 µM (inactive) | 13.2 µM (inactive) | 2.34 µM (inactive) | 2.81 µM (inactive) | 20.6 µM (inactive) | 20.7 µM (inactive) | 19.5 µM (inactive) | 3.12 µM (inactive) | – | 2.18 µM (inactive) | 1.82 µM (inactive) | 19.2 µM (inactive) | 16.8 µM (inactive) | 19.3 µM (inactive) | –
3 | COc1ccc(CCc2cc(OC)cc(OC)c2)cc1 | 25.2 µM (inactive) | 11.9 µM (inactive) | 22.6 µM (inactive) | 7.06 | 8.17 µM (inactive) | 19.2 µM (inactive) | 24.2 µM (inactive) | 15.6 µM (inactive) | 13.2 µM (inactive) | 22 µM (inactive) | > 61.5 µM (inactive) | 36.6 µM (inactive) | 3.34 µM (inactive) | – | 8.69 µM (inactive) | 4.98 µM (inactive) | 4.92 µM (inactive) | 30.7 µM (inactive) | 45.1 µM (inactive) | –
4 | COc1ccc(C(=O)C#Cc2cnc(O)nc2O)cc1 | 5.85 µM (inactive) | 12.9 µM (inactive) | 33 µM (inactive) | 7.83 | 2.34 µM (inactive) | 20.7 µM (inactive) | 14.6 µM (inactive) | 2.52 µM (inactive) | 9.64 µM (inactive) | 25.1 µM (inactive) | 17.1 µM (inactive) | 52.8 µM (inactive) | 3.61 µM (inactive) | – | 5.21 µM (inactive) | 3.12 µM (inactive) | 18.7 µM (inactive) | 18.7 µM (inactive) | 19.4 µM (inactive) | –
5 | O=C(/C=C/c1ccccc1Cl)c1cccc2ccccc12 | 16.3 µM (inactive) | 15.2 µM (inactive) | 12.5 µM (inactive) | 3.75 | 2.16 µM (inactive) | 16.7 µM (inactive) | 12.6 µM (inactive) | 4.82 µM (inactive) | 12.5 µM (inactive) | 2.82 µM (inactive) | 13.6 µM (inactive) | 18.9 µM (inactive) | 4.38 µM (inactive) | – | 10.4 µM (inactive) | 6.65 µM (inactive) | 5.24 µM (inactive) | 27.7 µM (inactive) | 12.8 µM (inactive) | –
6 | CC1=C(C(N)=O)C(c2ccncc2)C(C#N)C(=O)N1 (centres undefined) | > 100 µM (inactive) | > 100 µM (inactive) | > 100 µM (inactive) | > 100 | > 100 µM (inactive) | – | > 100 µM (inactive) | > 100 µM (inactive) | > 100 µM (inactive) | > 100 µM (inactive) | – | > 100 µM (inactive) | > 100 µM (inactive) | > 100 µM (inactive) | > 100 µM (inactive) | – | > 100 µM (inactive) | – | > 100 µM (inactive) | –
7 | CC(=O)c1sc(Nc2ccc(Cl)c(Cl)c2)nc1C | – | > 100 µM (inactive) | 35.1 µM (inactive) | 93.8 | 14.8 µM (inactive) | 96.6 µM (inactive) | > 100 µM (inactive) | – | 74.3 µM (inactive) | > 100 µM (inactive) | > 100 µM (inactive) | > 100 µM (inactive) | – | – | – | – | 65.2 µM (inactive) | 78 µM (inactive) | 5.64 µM (inactive) | > 100 µM (inactive)
8 | CCN(CC)CCCCC1CCN(CC(=O)N2c3ccccc3NC(=O)CC2C)CC1 (centres undefined) | > 100 µM (inactive) | > 100 µM (inactive) | > 100 µM (inactive) | > 100 | > 100 µM (inactive) | > 100 µM (inactive) | > 100 µM (inactive) | 65.8 µM (inactive) | > 100 µM (inactive) | > 100 µM (inactive) | > 100 µM (inactive) | > 100 µM (inactive) | > 100 µM (inactive) | – | 64.1 µM (inactive) | 30.3 µM (inactive) | > 100 µM (inactive) | > 100 µM (inactive) | > 100 µM (inactive) | –
9 | CC1=NN(C(=O)CC(=O)N(C(=O)c2ccccc2Cl)c2ccc(C)cc2)C(=O)C1/N=N/c1ccc([N+](=O)[O-])cc1 (centres undefined) | > 96.2 µM (inactive) | 21.6 µM (inactive) | 58.5 µM (inactive) | > 43.8 | > 100 µM (inactive) | 34.1 µM (inactive) | 47.3 µM (inactive) | > 49.8 µM (inactive) | > 100 µM (inactive) | > 47.3 µM (inactive) | > 46.1 µM (inactive) | 31.8 µM (inactive) | > 53.5 µM (inactive) | – | > 51.9 µM (inactive) | > 100 µM (inactive) | > 65.5 µM (inactive) | > 76 µM (inactive) | > 72.9 µM (inactive) | –
10 | CC(C)C(NC(=O)C(Cc1ccccc1)NC(=O)OC(C)(C)C)C(=O)NCC(=O)OCc1ccccc1 (stereo not drawn) (Boc-Phe-Val-Gly-OBn; configuration not given here) | 20.9 µM (inactive) | 16.9 µM (inactive) | 18.6 µM (inactive) | 12.9 | 18.5 µM (inactive) | – | 16.8 µM (inactive) | 20 µM (inactive) | 18.8 µM (inactive) | 18.8 µM (inactive) | 15.1 µM (inactive) | 13.4 µM (inactive) | 7.76 µM (inactive) | 15.7 µM (inactive) | 13.4 µM (inactive) | 6.55 µM (inactive) | – | – | 20.4 µM (inactive) | > 100 µM (inactive)
11 | COc1ccc2c(c1)nc1n2C(c2c(F)cccc2Cl)SC1 (centres undefined) | 3.9 µM (inactive) | 7.26 µM (inactive) | 2.74 µM (inactive) | 3.03 | – | 4.81 µM (inactive) | 3.59 µM (inactive) | 3.1 µM (inactive) | 19.1 µM (inactive) | 3.68 µM (inactive) | > 37.2 µM (inactive) | – | > 100 µM (inactive) | – | 1.26 µM (inactive) | – | 2.76 µM (inactive) | 4.75 µM (inactive) | 26.1 µM (inactive) | 1.56 µM (inactive)
12 | COc1ccc([C@@H]2CC(=O)NCCCCNCCCN2)cc1 | > 100 µM (inactive) | > 100 µM (inactive) | > 100 µM (inactive) | > 100 | > 100 µM (inactive) | > 100 µM (inactive) | > 100 µM (inactive) | > 100 µM (inactive) | > 100 µM (inactive) | > 100 µM (inactive) | > 100 µM (inactive) | > 100 µM (inactive) | > 100 µM (inactive) | – | > 100 µM (inactive) | > 100 µM (inactive) | > 100 µM (inactive) | > 100 µM (inactive) | > 100 µM (inactive) | –
13 | COc1cc(-c2cc(=O)c3c(OC)c(OC)c(OC)c(OC)c3o2)cc(OC)c1OC [HEPATAMETHOXYFLAVONE] | 45.7 µM (inactive) | 21 µM (inactive) | 28.1 µM (inactive) | 33.4 | 24.9 µM (inactive) | 35.5 µM (inactive) | 41.8 µM (inactive) | 30.5 µM (inactive) | 21.6 µM (inactive) | 42.3 µM (inactive) | > 100 µM (inactive) | 3.87 µM (inactive) | 63.4 µM (inactive) | – | 15 µM (inactive) | 19.1 µM (inactive) | – | 44.8 µM (inactive) | 48.4 µM (inactive) | 23.6 µM (inactive)
14 | CO[C@]12CC(=O)C3(C(C[C@H]4CC5CC[C@H]6C[C@@H](OC(C)=O)CC[C@]6(OC(C)=O)C5C[C@@]43C)C1)C1C[C@H]3[C@@H]4CC[C@H]5C[C@@H](OC(C)=O)CC[C@]5(OC(C)=O)[C@H]4CC[C@]3(C)C12 (some centres undefined) | > 100 µM (inactive) | 84.3 µM (inactive) | 61.5 µM (inactive) | 90.2 | 51.1 µM (inactive) | 61.2 µM (inactive) | 83.4 µM (inactive) | 24.5 µM (inactive) | > 100 µM (inactive) | 66.5 µM (inactive) | > 100 µM (inactive) | > 100 µM (inactive) | 54.6 µM (inactive) | 50.8 µM (inactive) | – | – | 46.8 µM (inactive) | – | > 100 µM (inactive) | 43.6 µM (inactive)
15 | O=C(Cc1ccccc1)NN1C(=O)C(Cl)C1c1cc(Br)ccc1O (centres undefined) | 4.34 µM (inactive) | 4.15 µM (inactive) | 6.19 µM (inactive) | 3.65 | 1.04 µM (active) | 10.1 µM (inactive) | 4.43 µM (inactive) | 0.755 µM (active) | 13 µM (inactive) | 2.2 µM (inactive) | 5.57 µM (inactive) | 4.07 µM (inactive) | 3.35 µM (inactive) | – | 2.46 µM (inactive) | 2.72 µM (inactive) | 9.48 µM (inactive) | 30 µM (inactive) | 3.03 µM (inactive) | –
16 | CCCCCCCC(CC(=O)NC(CO)C(=O)NC(CO)CC(C)C)OC(=O)CC(CCCCCCC)OC(=O)CC(CCCCCCC)OC1OC(C)C(O)C(OC2OC(C)C(O)C(O)C2OC(C)=O)C1O (centres undefined) | 5.69 µM (inactive) | 5.9 µM (inactive) | 10 µM (inactive) | – | 2.54 µM (inactive) | 12.3 µM (inactive) | 7.8 µM (inactive) | 3.15 µM (inactive) | 14.7 µM (inactive) | 4.07 µM (inactive) | 10.3 µM (inactive) | 16.6 µM (inactive) | 4.13 µM (inactive) | 4.06 µM (inactive) | 3 µM (inactive) | 12.6 µM (inactive) | 2.74 µM (inactive) | 20.5 µM (inactive) | 14.3 µM (inactive) | –
